Source: ChEMBL document CHEMBL5154935, “Design, Synthesis, and Biological Evaluation of Novel Evodiamine Derivatives as Potential Antihepatocellular Carcinoma Agents” (J Med Chem, 2022)
Calls of active or inactive are those of the source. The calls are words filed in the database; no cut-off is given here.

How the values were obtained:
[1] = test system: Huh-7; test: Induction of apoptosis in human Huh-7 cells assessed as early apoptotic cells at 80 nM incubated for 24 hrs by annexin V-FITC/PI staining flow cytometry (reference value: 0.33 %); type: functional
[2] = test system: SK-HEP1; test: Antiproliferative activity against human SK-HEP1 cells treated for 72 hrs by MTT assay; type: functional, cell-based; details: SK-HEP1, 72 h
[3] = test system: SK-HEP1; test: Induction of apoptosis in human SK-Hep1 cells assessed as early apoptotic cells at 10 nM incubated for 24 hrs by annexin V-FITC/PI staining flow cytometry (reference value: 0.30 %); type: functional
[4] = test system: Huh-7; test: Induction of apoptosis in human Huh-7 cells assessed as viable cells at 10 nM incubated for 24 hrs by annexin V-FITC/PI staining flow cytometry (reference value: 97.3 %); type: functional; details: read-out: Activity
[5] = test system: Huh-7; test: Induction of apoptosis in human Huh-7 cells assessed as early apoptotic cells at 10 nM incubated for 24 hrs by annexin V-FITC/PI staining flow cytometry (reference value: 0.33 %); type: functional
[6] = test system: SK-HEP1; test: Induction of apoptosis in human SK-Hep1 cells assessed as late apoptotic cells at 80 nM incubated for 24 hrs by annexin V-FITC/PI staining flow cytometry (reference value: 1.13 %); type: functional
[7] = test system: HSC-T6; test: Suppression of TGF-beta-1-stimulated rat HSC-T6 cells activation assessed as reduction in Col-1 levels at 10 to 80 nM preincubated with TGFbeta-1 followed by compound addition and measured after 24 to 48 hrs by ELISA; type: functional, cell-based; details: dose 10-80 nM, time 24-48 hrs
[8] = test system: Huh-7; test: Antiproliferative activity against human Huh-7 cells assessed as inhibition of cell viability treated for 24 to 72 hrs by MTT assay; type: functional, cell-based; details: time 24-72 hrs, DDE = dose-dependent effect
[9] = target: DNA topoisomerase 2-alpha (Homo sapiens) (UniProt P11388); test: Inhibition of human Top2-alpha expressed in baculovirus assessed as inhibition of relaxation of supercoiled pBR322 plasmid DNA at 100 uM incubated for 30 mins in presence of ATP by ethidium bromide staining based agarose gel electrophoresis analysis relative to control
[10] = test system: Huh-7; test: Induction of apoptosis in human Huh-7 cells assessed as cytoskeleton disintegration incubated for 24 hrs by Giemsa staining based microscopy; type: functional, cell-based; details: dose 12-60 nM, DDE = dose-dependent effect
[11] = test system: SK-HEP1; test: Induction of apoptosis in human SK-Hep1 cells assessed as cytoskeleton disintegration incubated for 24 hrs by Giemsa staining based microscopy; type: functional, cell-based; details: dose 12-60 nM, DDE = dose-dependent effect
[12] = test system: SK-HEP1; test: Induction of cell cycle arrest in human SK-Hep1 cells assessed as accumulation at S phase at 80 nM treated for 24 hrs by PI staining based flow cytometry (reference value: 24.98 %); type: functional
[13] = test system: HCC; test: Inhibition of cell proliferation of human HCC cells treated for 24 hrs by EdU staining based fluorescence microscopy assay; type: functional; details: dose 3-18 nM, DDE = dose-dependent effect
[14] = test system: SK-HEP1; test: Induction of apoptosis in human SK-Hep1 cells assessed as late apoptotic cells at 10 nM incubated for 24 hrs by annexin V-FITC/PI staining flow cytometry (reference value: 1.13 %); type: functional
[15] = test system: Huh-7; test: Induction of apoptosis in human Huh-7 cells assessed as necrotic cells at 40 nM incubated for 24 hrs by annexin V-FITC/PI staining flow cytometry (reference value: 1.08 %); type: functional
[16] = test system: Huh-7; test: Induction of apoptosis in human Huh-7 cells assessed as late apoptotic cells at 10 nM incubated for 24 hrs by annexin V-FITC/PI staining flow cytometry (reference value: 1.33 %); type: functional
[17] = test system: SK-HEP1; test: Induction of apoptosis in human SK-Hep1 cells assessed as early apoptotic cells at 80 nM incubated for 24 hrs by annexin V-FITC/PI staining flow cytometry (reference value: 0.30 %); type: functional
[18] = test system: SK-HEP1; test: Induction of apoptosis in human SK-Hep1 cells assessed as necrotic cells at 80 nM incubated for 24 hrs by annexin V-FITC/PI staining flow cytometry (reference value: 0.73 %); type: functional
[19] = test system: Huh-7; test: Induction of apoptosis in human Huh-7 cells assessed as late apoptotic cells at 40 nM incubated for 24 hrs by annexin V-FITC/PI staining flow cytometry (reference value: 1.33 %); type: functional
[20] = Induction of apoptosis in rat HSC-T6 cells assessed as early apoptotic cells at 40 nM pretreated with TGFbeta-1 for 1 day followed by compound addition and measured after 24 hrs by flow cytometry (reference value: 0.17 %); type: functional
[21] = test system: Huh-7; test: Induction of apoptosis in human Huh-7 cells assessed as early apoptotic cells at 40 nM incubated for 24 hrs by annexin V-FITC/PI staining flow cytometry (reference value: 0.33 %); type: functional
[22] = test system: Huh-7; test: Induction of apoptosis in human Huh-7 cells assessed as late apoptotic cells at 80 nM incubated for 24 hrs by annexin V-FITC/PI staining flow cytometry (reference value: 1.33 %); type: functional
[23] = test system: Huh-7; test: Induction of apoptosis in human Huh-7 cells assessed as viable cells at 40 nM incubated for 24 hrs by annexin V-FITC/PI staining flow cytometry (reference value: 97.3 %); type: functional; details: read-out: Activity
[24] = test system: SK-HEP1; test: Inhibition of cell migration in human SK-HEP1 cells at 3 to 18 nM incubated for 24 hrs by crystal violet staining based transwell assay; type: functional; details: dose 3-18 nM
[25] = test system: SK-HEP1; test: Antiproliferative activity against human SK-Hep1 cells assessed as inhibition of cell viability by MTT assay; type: functional, cell-based; details: time 24-72 hrs, TDE = time-dependent effect
[26] = test system: HCCLM9; test: Antiproliferative activity against human HCCLM9 cells treated for 72 hrs by MTT assay; type: functional, cell-based; details: HCCLM9, 72 h
[27] = test system: SK-HEP1; test: Induction of apoptosis in human SK-Hep1 cells assessed as cell membrane permeability by measuring blue fluorescence incubated for 24 hrs by Hoechst staining based microscopy; type: functional; details: dose 12-60 nM, DDE = dose-dependent effect

DNA topoisomerase 2-alpha (Homo sapiens), sequence (P11388 whole entry): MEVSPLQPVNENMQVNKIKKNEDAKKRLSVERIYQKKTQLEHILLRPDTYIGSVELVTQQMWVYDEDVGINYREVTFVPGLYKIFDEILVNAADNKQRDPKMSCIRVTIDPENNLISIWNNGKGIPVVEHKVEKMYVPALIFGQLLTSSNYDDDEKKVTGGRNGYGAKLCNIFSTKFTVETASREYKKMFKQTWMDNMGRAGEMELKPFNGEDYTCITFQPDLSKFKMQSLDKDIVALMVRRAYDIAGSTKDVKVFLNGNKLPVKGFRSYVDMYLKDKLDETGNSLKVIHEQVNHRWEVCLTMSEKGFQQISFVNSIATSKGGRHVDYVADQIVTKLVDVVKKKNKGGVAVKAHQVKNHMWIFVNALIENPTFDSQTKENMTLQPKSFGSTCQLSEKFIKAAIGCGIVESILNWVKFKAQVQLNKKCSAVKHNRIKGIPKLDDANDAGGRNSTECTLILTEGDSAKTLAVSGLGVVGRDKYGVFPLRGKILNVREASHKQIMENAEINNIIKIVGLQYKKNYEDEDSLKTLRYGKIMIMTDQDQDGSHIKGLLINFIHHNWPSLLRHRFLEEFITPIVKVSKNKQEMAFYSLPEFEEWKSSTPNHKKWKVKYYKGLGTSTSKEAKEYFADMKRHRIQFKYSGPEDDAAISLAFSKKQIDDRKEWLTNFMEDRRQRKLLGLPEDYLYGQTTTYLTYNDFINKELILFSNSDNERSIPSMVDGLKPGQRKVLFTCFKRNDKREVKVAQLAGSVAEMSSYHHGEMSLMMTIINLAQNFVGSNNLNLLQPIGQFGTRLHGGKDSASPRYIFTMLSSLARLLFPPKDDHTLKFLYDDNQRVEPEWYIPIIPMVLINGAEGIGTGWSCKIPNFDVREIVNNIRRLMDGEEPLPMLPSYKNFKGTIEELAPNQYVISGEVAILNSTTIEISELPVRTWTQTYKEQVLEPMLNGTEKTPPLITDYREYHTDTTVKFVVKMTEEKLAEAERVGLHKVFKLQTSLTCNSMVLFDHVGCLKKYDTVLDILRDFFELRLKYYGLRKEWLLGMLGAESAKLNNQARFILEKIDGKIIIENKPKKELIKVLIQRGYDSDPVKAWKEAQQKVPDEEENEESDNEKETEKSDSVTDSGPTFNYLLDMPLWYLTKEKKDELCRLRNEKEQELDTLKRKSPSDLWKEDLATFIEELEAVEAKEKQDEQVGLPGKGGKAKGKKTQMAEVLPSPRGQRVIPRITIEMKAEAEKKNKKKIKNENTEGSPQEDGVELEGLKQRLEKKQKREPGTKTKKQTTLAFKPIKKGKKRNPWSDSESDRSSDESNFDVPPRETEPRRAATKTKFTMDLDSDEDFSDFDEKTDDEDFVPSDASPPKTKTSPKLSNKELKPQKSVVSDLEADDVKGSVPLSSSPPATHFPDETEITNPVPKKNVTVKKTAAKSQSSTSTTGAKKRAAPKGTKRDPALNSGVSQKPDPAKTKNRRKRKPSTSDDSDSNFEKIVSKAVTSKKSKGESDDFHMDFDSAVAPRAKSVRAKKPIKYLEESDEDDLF

Compound: CC(=O)Oc1ccc2[nH]c3c(c2c1)CCN1C(=O)c2cc(F)cc(F)c2N(c2cccc(F)c2)C31 (centres undefined)
- Activity [1]: 1.1%
- IC50 [2]: 60 nM
- Activity [3]: 5.25%
- viability at 0.01 µM [4]: 93.8%
- Activity [5]: 0.63%
- Activity [6]: 19.5%
- inhibition [7]: Active
- Activity [8]: Dde
- inhibition [9]: 63.7%
- Activity [10]: Dde
- Activity [11]: Dde
- Activity [12]: 3.88%
- inhibition [13]: Dde
- Activity [14]: 7.45%
- Activity [15]: 10.1%
- Activity [16]: 4.02%
- Activity [17]: 13.5%
- Activity [18]: 2.63%
- Activity [19]: 25.6%
- Activity [20]: 0.32%
- Activity [21]: 1.37%
- Activity [22]: 29.4%
- viability at 0.04 µM [23]: 62.9%
- inhibition [24]: Active
- Activity [25]: Tde
- IC50 [26]: 100 nM
- Activity [27]: Dde

Compound: O=C1c2cc(F)cc(F)c2N(c2cccc(F)c2)C2c3[nH]c4ccc(O)cc4c3CCN12 (centres undefined)
- Activity [1]: 1.71%
- IC50 [2]: 70 nM
- Activity [3]: 0.91%
- viability at 0.01 µM [4]: 93.1%
- Activity [5]: 0.73%
- Activity [6]: 15.4%
- inhibition [7]: Active
- Activity [8]: Dde
- inhibition [9]: 67%
- Activity [10]: Dde
- Activity [11]: Dde
- Activity [12]: 4.5%
- inhibition [13]: Dde
- Activity [14]: 3.83%
- Activity [15]: 4.51%
- Activity [16]: 4.61%
- Activity [17]: 0.75%
- Activity [18]: 2.39%
- Activity [19]: 13.5%
- Activity [20]: 0.14%
- Activity [21]: 2.51%
- Activity [22]: 30%
- viability at 0.04 µM [23]: 79.5%
- inhibition [24]: Active
- Activity [25]: Tde
- IC50 [26]: 110 nM
- Activity [27]: Dde
